Results taken from ChEMBL document CHEMBL1909046, “DrugMatrix in vitro pharmacology data”.

target: T1, Neutrophil elastase (Homo sapiens, UniProt P08246); experiment: not given; type: tissue-based; conditions: not given;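 further: inhibition of neutrophil elastase enzyme activity, measured with a p-nitroanilide-linked peptide substrate; in other assays of this panel Not Active means under 50% inhibition at 10 µM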
T1 sequence (P08246 whole entry): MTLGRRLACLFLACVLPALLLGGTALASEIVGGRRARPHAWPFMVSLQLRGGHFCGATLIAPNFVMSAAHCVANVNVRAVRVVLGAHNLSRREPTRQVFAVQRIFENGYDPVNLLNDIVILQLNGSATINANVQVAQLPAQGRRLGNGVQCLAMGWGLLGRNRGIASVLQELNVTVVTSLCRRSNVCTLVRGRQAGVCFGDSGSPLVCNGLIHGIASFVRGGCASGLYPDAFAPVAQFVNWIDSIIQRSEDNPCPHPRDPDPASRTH

SMILES	IC50
CCCCN1CCCCC1C(=O)Nc1c(C)cccc1C.Cl (centres undefined) [BUPIVACAINE HYDROCHLORIDE]	Not Active
O=C1CC2(CCCC2)CC(=O)N1CCCCN1CCN(c2ncccn2)CC1 [BUSPIRONE]	Not Active
C[C@@]12C(=O)OC(=O)[C@]1(C)[C@H]1CC[C@@H]2O1 [CANTHARIDIN]	Not Active
O=NN(CCCl)C(=O)NCCCl [CARMUSTINE]	Not Active
CC1=C(C(=O)O)N2C(=O)[C@@H](NC(=O)[C@H](N)c3ccccc3)[C@H]2SC1 [CEPHALEXIN ANHYDROUS]	Not Active
O=C(N[C@H](CO)[C@H](O)c1ccc([N+](=O)[O-])cc1)C(Cl)Cl [CHLORAMPHENICOL]	Not Active

target: Prostaglandin G/H synthase 1 (Homo sapiens, UniProt P23219); experiment: biochemical; type: tissue-based, Platelet; conditions: platelet;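 further: inhibition of COX-1 enzyme activity, with arachidonic acid supplied as substrate; in other assays of this panel Not Active means under 50% inhibition at 10 µM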
Sequence (P23219 whole entry): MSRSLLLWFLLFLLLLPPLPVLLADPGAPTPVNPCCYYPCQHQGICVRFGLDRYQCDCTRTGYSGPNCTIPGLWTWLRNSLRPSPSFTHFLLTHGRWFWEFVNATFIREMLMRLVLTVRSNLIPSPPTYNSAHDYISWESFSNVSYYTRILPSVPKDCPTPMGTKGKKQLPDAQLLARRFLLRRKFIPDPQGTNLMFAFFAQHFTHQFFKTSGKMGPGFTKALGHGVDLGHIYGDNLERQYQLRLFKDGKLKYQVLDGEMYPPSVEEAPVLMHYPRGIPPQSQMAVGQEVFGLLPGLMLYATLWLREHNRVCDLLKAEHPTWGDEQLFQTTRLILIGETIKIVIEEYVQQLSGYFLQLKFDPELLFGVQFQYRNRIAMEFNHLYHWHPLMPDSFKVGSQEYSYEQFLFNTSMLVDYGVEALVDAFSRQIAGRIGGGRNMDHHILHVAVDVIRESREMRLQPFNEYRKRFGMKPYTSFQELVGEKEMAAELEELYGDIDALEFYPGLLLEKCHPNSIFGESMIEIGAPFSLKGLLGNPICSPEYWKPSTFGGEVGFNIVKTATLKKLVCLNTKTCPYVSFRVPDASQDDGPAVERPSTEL

SMILES	IC50
CCCCN1CCCCC1C(=O)Nc1c(C)cccc1C.Cl (centres undefined) [BUPIVACAINE HYDROCHLORIDE]	Not Active
O=C1CC2(CCCC2)CC(=O)N1CCCCN1CCN(c2ncccn2)CC1 [BUSPIRONE]	Not Active
C[C@@]12C(=O)OC(=O)[C@]1(C)[C@H]1CC[C@@H]2O1 [CANTHARIDIN]	Not Active
O=NN(CCCl)C(=O)NCCCl [CARMUSTINE]	Not Active
CC1=C(C(=O)O)N2C(=O)[C@@H](NC(=O)[C@H](N)c3ccccc3)[C@H]2SC1 [CEPHALEXIN ANHYDROUS]	Not Active
O=C(N[C@H](CO)[C@H](O)c1ccc([N+](=O)[O-])cc1)C(Cl)Cl [CHLORAMPHENICOL]	Not Active

target: T2, C-X-C chemokine receptor type 1 (Homo sapiens, UniProt P25024); experiment: not given; conditions: not given; further: in other assays of this panel Not Active means under 50% inhibition at 10 µM
T2 sequence (P25024 whole entry): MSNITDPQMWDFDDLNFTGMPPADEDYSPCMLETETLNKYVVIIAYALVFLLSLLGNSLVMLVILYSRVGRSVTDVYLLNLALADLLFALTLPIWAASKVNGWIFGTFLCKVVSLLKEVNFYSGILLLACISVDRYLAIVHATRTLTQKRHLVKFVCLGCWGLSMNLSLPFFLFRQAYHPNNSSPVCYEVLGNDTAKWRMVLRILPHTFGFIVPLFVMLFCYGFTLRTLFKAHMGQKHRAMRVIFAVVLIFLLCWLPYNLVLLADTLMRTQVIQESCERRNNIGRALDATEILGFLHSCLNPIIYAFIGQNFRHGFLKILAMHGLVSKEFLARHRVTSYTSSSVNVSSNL

SMILES	IC50
CCCCN1CCCCC1C(=O)Nc1c(C)cccc1C.Cl (centres undefined) [BUPIVACAINE HYDROCHLORIDE]	Not Active
O=C1CC2(CCCC2)CC(=O)N1CCCCN1CCN(c2ncccn2)CC1 [BUSPIRONE]	Not Active
C[C@@]12C(=O)OC(=O)[C@]1(C)[C@H]1CC[C@@H]2O1 [CANTHARIDIN]	Not Active
O=NN(CCCl)C(=O)NCCCl [CARMUSTINE]	Not Active
CC1=C(C(=O)O)N2C(=O)[C@@H](NC(=O)[C@H](N)c3ccccc3)[C@H]2SC1 [CEPHALEXIN ANHYDROUS]	Not Active
O=C(N[C@H](CO)[C@H](O)c1ccc([N+](=O)[O-])cc1)C(Cl)Cl [CHLORAMPHENICOL]	Not Active

target: T3, Cathepsin G (Homo sapiens, UniProt P08311); experiment: not given; type: tissue-based; conditions: neutrophil;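 further: inhibition of Cathepsin G enzyme activity, tested on an AMC-conjugated peptide substrate; in other assays of this panel Not Active means under 50% inhibition at 10 µM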
T3 sequence (P08311 whole entry): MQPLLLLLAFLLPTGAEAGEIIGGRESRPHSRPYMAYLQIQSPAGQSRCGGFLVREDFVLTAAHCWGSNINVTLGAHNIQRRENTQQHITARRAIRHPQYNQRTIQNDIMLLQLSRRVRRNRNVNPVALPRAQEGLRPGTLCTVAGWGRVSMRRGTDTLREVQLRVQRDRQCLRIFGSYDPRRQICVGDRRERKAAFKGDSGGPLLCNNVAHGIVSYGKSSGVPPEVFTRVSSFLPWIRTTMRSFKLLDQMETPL

SMILES	IC50
CCCCN1CCCCC1C(=O)Nc1c(C)cccc1C.Cl (centres undefined) [BUPIVACAINE HYDROCHLORIDE]	Not Active
O=C1CC2(CCCC2)CC(=O)N1CCCCN1CCN(c2ncccn2)CC1 [BUSPIRONE]	Not Active
C[C@@]12C(=O)OC(=O)[C@]1(C)[C@H]1CC[C@@H]2O1 [CANTHARIDIN]	Not Active
O=NN(CCCl)C(=O)NCCCl [CARMUSTINE]	Not Active
CC1=C(C(=O)O)N2C(=O)[C@@H](NC(=O)[C@H](N)c3ccccc3)[C@H]2SC1 [CEPHALEXIN ANHYDROUS]	Not Active
O=C(N[C@H](CO)[C@H](O)c1ccc([N+](=O)[O-])cc1)C(Cl)Cl [CHLORAMPHENICOL]	Not Active

target: Glycine receptor (Rattus norvegicus, UniProt P22771+P24524+P07727+P20781); experiment: not given; type: cell membranes, Wistar, Spinal cord, Membrane; conditions: not given; further: in other assays of this panel Not Active means under 50% inhibition at 10 µM

SMILES	IC50
CCCCN1CCCCC1C(=O)Nc1c(C)cccc1C.Cl (centres undefined) [BUPIVACAINE HYDROCHLORIDE]	Not Active
O=C1CC2(CCCC2)CC(=O)N1CCCCN1CCN(c2ncccn2)CC1 [BUSPIRONE]	Not Active
C[C@@]12C(=O)OC(=O)[C@]1(C)[C@H]1CC[C@@H]2O1 [CANTHARIDIN]	Not Active
O=NN(CCCl)C(=O)NCCCl [CARMUSTINE]	Not Active
CC1=C(C(=O)O)N2C(=O)[C@@H](NC(=O)[C@H](N)c3ccccc3)[C@H]2SC1 [CEPHALEXIN ANHYDROUS]	Not Active
O=C(N[C@H](CO)[C@H](O)c1ccc([N+](=O)[O-])cc1)C(Cl)Cl [CHLORAMPHENICOL]	Not Active

target: T4, Thromboxane-A synthase (Homo sapiens, UniProt P24557); experiment: biochemical; type: tissue-based, Platelet; conditions: platelet
T4 sequence (P24557 whole entry): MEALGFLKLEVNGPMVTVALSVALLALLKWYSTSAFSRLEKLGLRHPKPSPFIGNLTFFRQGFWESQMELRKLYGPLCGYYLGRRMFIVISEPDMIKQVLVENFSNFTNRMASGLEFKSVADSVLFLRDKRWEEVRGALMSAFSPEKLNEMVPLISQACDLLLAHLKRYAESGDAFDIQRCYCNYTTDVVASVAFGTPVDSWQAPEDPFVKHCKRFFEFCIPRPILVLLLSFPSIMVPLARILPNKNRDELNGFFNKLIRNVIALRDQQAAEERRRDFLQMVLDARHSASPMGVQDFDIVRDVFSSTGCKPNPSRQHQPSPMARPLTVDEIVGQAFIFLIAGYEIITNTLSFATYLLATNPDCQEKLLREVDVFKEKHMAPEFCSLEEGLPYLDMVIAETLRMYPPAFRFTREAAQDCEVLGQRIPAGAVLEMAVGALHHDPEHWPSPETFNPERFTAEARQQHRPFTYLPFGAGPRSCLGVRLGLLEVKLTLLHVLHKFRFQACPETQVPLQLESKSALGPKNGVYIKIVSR

SMILES	IC50
CCCCN1CCCCC1C(=O)Nc1c(C)cccc1C.Cl (centres undefined) [BUPIVACAINE HYDROCHLORIDE]	Not Active
O=C1CC2(CCCC2)CC(=O)N1CCCCN1CCN(c2ncccn2)CC1 [BUSPIRONE]	Not Active
C[C@@]12C(=O)OC(=O)[C@]1(C)[C@H]1CC[C@@H]2O1 [CANTHARIDIN]	Not Active
O=NN(CCCl)C(=O)NCCCl [CARMUSTINE]	Not Active
CC1=C(C(=O)O)N2C(=O)[C@@H](NC(=O)[C@H](N)c3ccccc3)[C@H]2SC1 [CEPHALEXIN ANHYDROUS]	Not Active
O=C(N[C@H](CO)[C@H](O)c1ccc([N+](=O)[O-])cc1)C(Cl)Cl [CHLORAMPHENICOL]	Not Active

target: T5, Interstitial collagenase (Homo sapiens, UniProt P03956); experiment: biochemical; type: tissue-based, Rheumatoid synovial fibroblasts; conditions: not given
T5 sequence (P03956 whole entry): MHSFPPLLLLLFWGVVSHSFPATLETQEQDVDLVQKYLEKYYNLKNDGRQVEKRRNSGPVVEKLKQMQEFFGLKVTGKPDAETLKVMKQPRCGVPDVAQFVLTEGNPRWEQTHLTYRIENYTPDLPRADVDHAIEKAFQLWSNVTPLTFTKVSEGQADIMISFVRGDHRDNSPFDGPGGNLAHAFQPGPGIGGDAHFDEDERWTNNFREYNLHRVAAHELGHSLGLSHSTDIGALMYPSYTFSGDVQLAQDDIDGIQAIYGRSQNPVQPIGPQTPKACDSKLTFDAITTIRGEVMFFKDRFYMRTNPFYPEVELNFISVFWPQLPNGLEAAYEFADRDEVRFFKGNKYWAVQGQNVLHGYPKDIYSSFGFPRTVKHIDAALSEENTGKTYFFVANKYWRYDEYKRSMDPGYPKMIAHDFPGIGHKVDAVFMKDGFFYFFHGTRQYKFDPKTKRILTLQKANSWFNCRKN

SMILES	IC50
CCCCN1CCCCC1C(=O)Nc1c(C)cccc1C.Cl (centres undefined) [BUPIVACAINE HYDROCHLORIDE]	Not Active
O=C1CC2(CCCC2)CC(=O)N1CCCCN1CCN(c2ncccn2)CC1 [BUSPIRONE]	Not Active
C[C@@]12C(=O)OC(=O)[C@]1(C)[C@H]1CC[C@@H]2O1 [CANTHARIDIN]	Not Active
O=NN(CCCl)C(=O)NCCCl [CARMUSTINE]	Not Active
CC1=C(C(=O)O)N2C(=O)[C@@H](NC(=O)[C@H](N)c3ccccc3)[C@H]2SC1 [CEPHALEXIN ANHYDROUS]	Not Active
O=C(N[C@H](CO)[C@H](O)c1ccc([N+](=O)[O-])cc1)C(Cl)Cl [CHLORAMPHENICOL]	Not Active

target: T6, Alpha-1B adrenergic receptor (Rattus norvegicus, UniProt P15823); experiment: DRUGMATRIX: Alpha-1B adrenergic receptor radioligand binding (ligand: prazosin); type: cell membranes, Wistar, Liver, Membrane; conditions: Not Active = under 50% inhibition at 10 µM
T6 sequence (P15823 whole entry): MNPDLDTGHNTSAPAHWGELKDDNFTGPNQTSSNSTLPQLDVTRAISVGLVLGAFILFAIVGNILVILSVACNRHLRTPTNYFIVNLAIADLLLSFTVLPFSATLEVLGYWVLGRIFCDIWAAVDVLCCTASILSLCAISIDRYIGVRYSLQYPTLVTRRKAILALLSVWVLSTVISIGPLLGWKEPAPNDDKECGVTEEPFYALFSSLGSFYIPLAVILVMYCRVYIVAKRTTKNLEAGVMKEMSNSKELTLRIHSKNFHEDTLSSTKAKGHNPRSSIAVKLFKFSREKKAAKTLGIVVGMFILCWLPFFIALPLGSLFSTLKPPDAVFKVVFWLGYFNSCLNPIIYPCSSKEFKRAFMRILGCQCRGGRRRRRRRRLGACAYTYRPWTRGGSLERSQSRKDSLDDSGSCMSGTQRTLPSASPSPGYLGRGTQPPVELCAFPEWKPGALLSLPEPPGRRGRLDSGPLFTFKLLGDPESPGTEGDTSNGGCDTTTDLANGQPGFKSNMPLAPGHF

SMILES	IC50
CCCCN1CCCCC1C(=O)Nc1c(C)cccc1C.Cl (centres undefined) [BUPIVACAINE HYDROCHLORIDE]	Not Active
O=C1CC2(CCCC2)CC(=O)N1CCCCN1CCN(c2ncccn2)CC1 [BUSPIRONE]	Not Active
C[C@@]12C(=O)OC(=O)[C@]1(C)[C@H]1CC[C@@H]2O1 [CANTHARIDIN]	Not Active
O=NN(CCCl)C(=O)NCCCl [CARMUSTINE]	Not Active
CC1=C(C(=O)O)N2C(=O)[C@@H](NC(=O)[C@H](N)c3ccccc3)[C@H]2SC1 [CEPHALEXIN ANHYDROUS]	Not Active
O=C(N[C@H](CO)[C@H](O)c1ccc([N+](=O)[O-])cc1)C(Cl)Cl [CHLORAMPHENICOL]	Not Active

target: T7, Leukotriene C4 synthase (Cavia porcellus, UniProt A6XA80); experiment: not given; type: tissue-based, Lung; conditions: not given
T7 sequence (A6XA80 whole entry): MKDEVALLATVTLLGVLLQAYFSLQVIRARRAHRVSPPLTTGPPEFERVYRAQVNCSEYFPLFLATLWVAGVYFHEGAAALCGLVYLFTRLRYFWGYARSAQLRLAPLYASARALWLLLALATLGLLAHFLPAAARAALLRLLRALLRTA

SMILES	IC50
CCCCN1CCCCC1C(=O)Nc1c(C)cccc1C.Cl (centres undefined) [BUPIVACAINE HYDROCHLORIDE]	Not Active
O=C1CC2(CCCC2)CC(=O)N1CCCCN1CCN(c2ncccn2)CC1 [BUSPIRONE]	Not Active
C[C@@]12C(=O)OC(=O)[C@]1(C)[C@H]1CC[C@@H]2O1 [CANTHARIDIN]	Not Active
O=NN(CCCl)C(=O)NCCCl [CARMUSTINE]	Not Active
CC1=C(C(=O)O)N2C(=O)[C@@H](NC(=O)[C@H](N)c3ccccc3)[C@H]2SC1 [CEPHALEXIN ANHYDROUS]	Not Active
O=C(N[C@H](CO)[C@H](O)c1ccc([N+](=O)[O-])cc1)C(Cl)Cl [CHLORAMPHENICOL]	Not Active
